Earlier results as cited in patent publication US4041155A, “Long acting somatostatin composition” (American Home Products Corporation, priority 1974, dated 1977).

Legend:
[1] = tested on: release of glucagon, insulin, and GH; conditions: oral glucose tolerance and intravenous arginine tests; cited from earlier work
GH secretion = conditions: patients with acromegaly; cited from earlier work
circulating levels of GH = conditions: subcutaneous route, cited from earlier work

| Substance | release of GH [1] | release of glucagon [1] | release of insulin [1] | circulating levels of glucose (GH secretion) | circulating levels of insulin (GH secretion) | circulating levels of prolactin (GH secretion) | duration of biologic action (GH secretion) | free fatty acids (GH secretion) | inhibitory action on GH secretion (GH secretion) | levels of follicle-stimulating hormone (GH secretion) | levels of luteinizing hormone (GH secretion) | levels of thyrotropin (GH secretion) | circulating levels of GH (circulating levels of GH; "gentled" rats) | elevation of plasma GH concentration induced by sodium pentobarbital (circulating levels of GH; rats) | duration of activity, half-life (circulating levels of GH; rats, estimated) |
| --- | --- | --- | --- | --- | --- | --- | --- | --- | --- | --- | --- | --- | --- | --- | --- |
| Somatostatin: cyclic disulfide tetradecapeptide; Somatotropin-release inhibiting factor secreted by the hypothalamus | impairs the release | impairs the release | impairs the release | fall | fall | fall | brief | increase | nearly complete | No effects | No effects | No effects |  |  |  |
| linear somatostatin: reduced tetradecapeptide; differs from cyclic form by lacking the bridging bond between the two cysteinyl sulfhydryls |  |  |  |  |  |  |  |  |  |  |  |  | lowers the circulating levels of GH | prevents the elevation of plasma GH concentration | less than ten minutes |
